# Several values for one entry are separate records, joined by “and”; a condition that tells them apart may be missing. Equal entries are not always repeated. Entries after “also recorded” stand apart in the source; their conditions may differ. Where two headings read alike, the source gives them in different places.
# Columns and labels:
# L929sAhFas cells [1] = assay: mTNF-induced RIPK1-dependent necroptosis; assay type: cell-based, murine
# Method: (§1) Data represent mean values ±S.E.M., n = 6. […] Data represent mean values ±S.E.M. (g–l).
# (§2) Data were analysed using the Columbus software package (PerkinElmer).
# L929sAhFas cells [2] = assay: High-content imaging of cell growth, nuclear area and nuclear roundness (cytokinesis defects); assay type: cell-based, murine; conditions: for Cytokinesis defects (nuclear roundness, nuclear area): 10 µM, 24 h
# Method: as §1, §2
# L929sAhFas cells [3] = assay: Cellular screening of Tozasertib analogues for cytokinesis defects and inhibition of necroptosis; assay type: cell-based, murine; conditions: 3 µM, 0.5 h or 24 h pre-treatment
# Method: Next, cells were left unstimulated or stimulated with mTNF (40 ng/mL) + zVAD.fmk (10 µM) for […]. Proliferation, nuclear area and cell death were quantified by staining the cells with propidium iodide (PI) (3 µM) and Hoechst (1 µM) for image analysis with BD pathway. […] Significance was analysed using repeated measurements data analysis. […] Cells were stimulated for 7 h with mTNF and 4 h with mTNF + zVAD.fmk. Data represent mean values ±S.E.M. (n = 2). […] Dose responses were included in the screening (b–c) assay conditions.
# as §2
# recombinant hRIPK1 = target: T1, recombinant hRIPK1 (Homo sapiens, UniProt Q13546); assay: In vitro ADP-Glo kinase assay; assay type: biochemical; conditions: dose response, Fig. 3a
# T1 construct: made in house
# T1 sequence (Q13546 1-671): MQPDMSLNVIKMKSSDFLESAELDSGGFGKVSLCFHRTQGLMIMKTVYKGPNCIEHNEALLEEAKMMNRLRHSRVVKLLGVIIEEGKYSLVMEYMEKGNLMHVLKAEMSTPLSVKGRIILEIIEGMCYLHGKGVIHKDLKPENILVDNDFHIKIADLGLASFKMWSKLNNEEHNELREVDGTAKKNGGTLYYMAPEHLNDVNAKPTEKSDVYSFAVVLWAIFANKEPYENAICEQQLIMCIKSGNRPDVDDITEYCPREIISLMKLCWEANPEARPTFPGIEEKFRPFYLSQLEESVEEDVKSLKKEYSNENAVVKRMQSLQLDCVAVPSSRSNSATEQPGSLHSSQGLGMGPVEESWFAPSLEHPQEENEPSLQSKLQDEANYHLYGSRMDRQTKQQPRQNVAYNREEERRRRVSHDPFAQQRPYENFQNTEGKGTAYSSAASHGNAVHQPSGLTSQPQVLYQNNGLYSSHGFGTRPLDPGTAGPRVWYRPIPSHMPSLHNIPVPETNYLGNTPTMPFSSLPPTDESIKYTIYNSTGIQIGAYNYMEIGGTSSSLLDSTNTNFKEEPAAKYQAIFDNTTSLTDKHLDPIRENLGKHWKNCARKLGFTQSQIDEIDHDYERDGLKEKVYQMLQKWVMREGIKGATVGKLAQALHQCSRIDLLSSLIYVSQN
# Method: (§3) Compounds (concentrations as indicated) were co-incubated with recombinant hRIPK1 (100 nM) (produced in our laboratory), hAurora kinase A (25 nM) or hAurora kinase B (25 nM) (ADP-Glo^TM kinase assay + Aurora A/Aurora B kinase enzyme system, Promega, V9081 and V9181). For hRIPK1, the kinase assay buffer (2×) contains 50 mM HEPES pH 7.5, 30 mM MgCl2, 50 mM NaCl, 0.5 mg/mL BSA, 0.02% CHAPS and 1 mM DTT. For the Aurora kinases, the kinase assay buffer was used from the promega assay (V9081, V9181). Next, the in vitro ADP-Glo^TM kinase assay (Promega, V6930) was used to determine kinase activity. The assay was performed according to the manufacturer’s protocol. The primary kinase reaction was carried out for 4 h at room temperature and a 2:2:1 ratio of kinase reaction volume to ADP-Glo reagent volume to kinase detection reagent volume was used.
# hAurora kinase B = target: T2, hAurora kinase B (Homo sapiens, UniProt Q96GD4); assay: In vitro ADP-Glo kinase assay; assay type: biochemical; conditions: dose response, Fig. 3c
# T2 construct: purchased Promega V9181
# T2 sequence (Q96GD4 whole entry): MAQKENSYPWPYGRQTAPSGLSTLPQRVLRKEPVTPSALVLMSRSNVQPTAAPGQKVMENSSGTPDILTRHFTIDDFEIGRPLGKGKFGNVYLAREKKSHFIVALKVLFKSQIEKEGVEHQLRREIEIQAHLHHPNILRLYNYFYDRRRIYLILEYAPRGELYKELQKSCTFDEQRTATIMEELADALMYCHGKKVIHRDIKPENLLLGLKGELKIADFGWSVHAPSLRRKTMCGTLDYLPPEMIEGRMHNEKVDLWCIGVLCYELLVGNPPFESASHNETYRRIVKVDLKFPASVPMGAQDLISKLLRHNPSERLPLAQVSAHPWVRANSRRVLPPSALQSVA
# Method: as §3
# hAurora kinase A = target: T3, hAurora kinase A (Homo sapiens, UniProt O14965); assay: In vitro ADP-Glo kinase assay; assay type: biochemical; conditions: dose response, Fig. 3b
# T3 construct: purchased Promega V9081
# T3 sequence (O14965 1-403): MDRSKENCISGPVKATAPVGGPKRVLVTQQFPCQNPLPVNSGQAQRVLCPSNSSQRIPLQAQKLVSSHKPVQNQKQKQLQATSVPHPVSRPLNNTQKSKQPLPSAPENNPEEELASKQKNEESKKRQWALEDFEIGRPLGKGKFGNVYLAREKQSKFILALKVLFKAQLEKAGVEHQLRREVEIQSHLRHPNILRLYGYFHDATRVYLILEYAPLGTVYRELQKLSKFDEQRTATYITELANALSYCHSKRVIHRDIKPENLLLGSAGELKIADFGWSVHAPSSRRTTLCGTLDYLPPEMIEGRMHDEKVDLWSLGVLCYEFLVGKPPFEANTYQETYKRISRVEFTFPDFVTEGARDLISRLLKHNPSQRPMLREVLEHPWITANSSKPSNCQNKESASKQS
# Method: as §3
# L929sAhFas cells [4] = assay: mTNF+zVAD.fmk-induced necroptosis (sensitising condition)
# L929sAhFas cells [5] = assay: Cytotoxicity of the compound alone (% PI-negative cells); assay type: cell-based, murine; conditions: 10 µM or lower, 24 h
# Text: Supplementary Figure 1. […] Data represent mean ± S.E.M. of 3 independent experiment. One-way Anova with Tukey correction for multiple testing has been performed.
# recombinant mRIPK3 = recombinant mRIPK3 (Mus musculus, UniProt Q9QZL0); assay: In vitro ADP-Glo kinase assay; assay type: biochemical; conditions: 10 µM; mRIPK3 15 nM
# Chain of recombinant mRIPK3 (Q9QZL0 whole entry): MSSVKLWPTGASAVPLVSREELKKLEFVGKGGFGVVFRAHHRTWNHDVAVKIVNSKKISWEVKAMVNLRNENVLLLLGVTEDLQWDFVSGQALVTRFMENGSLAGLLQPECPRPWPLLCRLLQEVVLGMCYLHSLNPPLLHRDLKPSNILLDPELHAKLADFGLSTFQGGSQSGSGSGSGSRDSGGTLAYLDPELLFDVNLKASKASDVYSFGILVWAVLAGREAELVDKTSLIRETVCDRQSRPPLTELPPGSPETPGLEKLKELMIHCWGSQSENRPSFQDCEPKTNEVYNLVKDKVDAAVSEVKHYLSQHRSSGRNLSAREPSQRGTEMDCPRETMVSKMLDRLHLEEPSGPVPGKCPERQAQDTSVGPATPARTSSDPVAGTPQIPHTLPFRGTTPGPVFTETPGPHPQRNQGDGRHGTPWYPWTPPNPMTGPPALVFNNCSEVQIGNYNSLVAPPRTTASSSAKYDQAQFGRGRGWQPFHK
# Method: Supplementary Figure 5. […] An in vitro ADP-Glo kinase assay using recombinant mRIPK3 (15 nM) (A) was performed. […] Data represent mean value ± S.E.M. of 3 independent experiment. One-way ANOVA with Tukey correction for multiple testing has been performed (**** p<0.0001 ).
# MEF cells = assay: RIPK1-dependent apoptosis (hTNF+Tak1i); assay type: cell-based, murine; conditions: 10 µM, pre-treated 1 h, hTNF 20 ng/mL + Tak1i 1 µM
# L929sAhFas cells [6] = assay: RIPK1-independent apoptosis by agonistic anti-Fas antibody; assay type: cell-based, murine; conditions: 10 µM, pre-treated 1 h, agonistic anti-Fas antibody 250 ng/mL
# L929sAhFas cells [7] = assay: Clonogenic assay (colony-forming capacity); assay type: cell-based, murine
# Method: […]. […] Data represent mean values ±S.E.M., n = 6. […] […]. […] Data represent mean values ±S.E.M. (g–l).
# Next, treatment was removed and 50 cells/condition were seeded. After 10 days, cells were fixed with 4% PFA for 10 min. After fixation, cells were stained with a 0.01% crystal violet solution for 1 h. Cells were washed with PBS, dried overnight and images were taken. Colonies were counted using ImageJ.
# [8] = tested on: endogenous Aurora A (Aur A) and B (Aur B); assay: Immunoblot of autophosphorylation of endogenous Aurora A and B; assay type: cell-based, murine; conditions: 10 µM, 16 h
# Method: Then, a clonogenic assay was performed to determine colony-forming capacity. Quantification was performed using ImageJ. […] Data represent mean values ±S.E.M., n = 6. […] Data represent mean values ±S.E.M. (g–l).
# Antibodies used were anti-phospho-Aurora A (Thr288)/Aurora B (Thr232)/Aurora C (Thr198) (D13A11) (Cell Signaling, #2914, Danvers, MA, USA), anti-tubulin-HRP (abcam, ab21058, Cambridge, UK). After treatments, cells were washed twice with PBS and lysed with 2× Laemmli buffer directly. These samples were used for SDS-PAGE and immunoblotting. Tubulin was used as loading control.
# HT29 cells = assay: hTNF+Tak1i+zVAD.fmk-induced necroptosis
# [9] = pre-treated 1 h, mTNF 20 ng/mL 5 h
# [10] = Mus musculus, read-out: Necroptosis IC50, Aurora inhibitor panel, dose-response 10-0.0022 µM, pre-treated 1 h, mTNF 20 ng/mL 5 h, nonlinear regression
structure (smiles),measurement,setting,value
Cc1csc(-c2nnc(Nc3ccc(Oc4ncccc4-c4ccnc(N)n4)cc3)c3ccccc23)c1 [AMG-900],Inhibition of TNF-induced necroptosis by Aurora kinase inhibitors (in words),L929sAhFas cells [1]; [9],cannot inhibit necroptosis; also recorded: not able to protect
CCN(CCCOc1ccc2c(Nc3cc(CC(=O)Nc4cccc(F)c4)n[nH]3)ncnc2c1)CCOP(=O)(O)O [Barasertib],Inhibition of TNF-induced necroptosis by Aurora kinase inhibitors (in words),L929sAhFas cells [1]; [9],not able to protect
CO[C@@H](C(=O)N1Cc2n[nH]c(NC(=O)c3ccc(N4CCN(C)CC4)cc3)c2C1)c1ccccc1 [Danusertib],IC50,L929sAhFas cells [1]; [10],13900 nM
same,Inhibition of TNF-induced necroptosis by Aurora kinase inhibitors (in words),L929sAhFas cells [1]; [9],not able to protect
CC(C)(C)C(=O)N1N=CC[C@H]1c1ccccc1 [GSK’963],"Cytokinesis defects (nuclear roundness, nuclear area)",L929sAhFas cells [2],did not affect cytokinesis
O=C(O)c1ccc(Nc2ncc3c(n2)-c2ccc(Cl)cc2C(c2c(F)cccc2F)=NC3)cc1 [MLN-8054],Cytokinesis and proliferation in the analogue screening (in words),L929sAhFas cells [3],cytokinesis inhibition
same,Necroptosis in the analogue screening (in words),L929sAhFas cells [3]; mTNF 40 ng/mL + zVAD.fmk 10 µM 3 h,without affecting RIPK1-dependent cell death
"CN1C(=O)NC(Cc2c[nH]c3c(Cl)cccc23)C1=O (centres unmarked) [Nec-1s, Necrostatin-1s]",Inhibition of hRIPK1 kinase activity (in words),recombinant hRIPK1,only inhibits recombinant hRIPK1
same,Inhibition of hAur B kinase activity (in words),hAurora kinase B,only inhibits recombinant hRIPK1
same,Inhibition of hAur A kinase activity (in words),hAurora kinase A,only inhibits recombinant hRIPK1
same,"Cytokinesis defects (nuclear roundness, nuclear area)",L929sAhFas cells [2],does not result in cytokinesis defects
same,IC50,"L929sAhFas cells [1]; Aurora inhibitor panel, dose-response 10-0.0022 µM, pre-treated 1 h, mTNF 20 ng/mL 5 h, nonlinear regression, read-out: Necroptosis IC50",367 nM
same,IC50,"L929sAhFas cells [1]; pre-treatment 1 h, mTNF 20 ng/mL 5 h, Probit analysis, read-out: Necroptosis L929-mTNF IC50",149 nM
same,IC50,"L929sAhFas cells [4]; read-out: Necroptosis L929-mTNF+zVAD IC50, pre-treatment 1 h, necroptosis treatment 3 h, Probit analysis",240 nM
O=C(Nc1cccc(Cl)c1)Nc1ncc(CCNc2ncnc3ccsc23)s1 [SNS-314],IC50,L929sAhFas cells [1]; [10],400 nM
same,IC50,"L929sAhFas cells [1]; read-out: Necroptosis IC50, Aurora inhibitor panel, dose-response 10-0.0022 µM, pre-treated 1 h, mTNF 20 ng/mL 5 h, nonlinear regression",399 nM
Cc1cc(Nc2cc(N3CCN(C)CC3)nc(Sc3ccc(NC(=O)C4CC4)cc3)n2)[nH]n1 [Tozasertib],Toxicity of the compound on itself,L929sAhFas cells [5],not cytotoxic; also recorded: not toxic
same,Mean nuclear area at highest concentration,"L929sAhFas cells [2]; 48 h, highest concentration",250 µm^2
same,Mean nuclear roundness at highest concentration,"L929sAhFas cells [2]; 48 h, 0 = straight line, 1 = perfect circle",0.80
same,EC50,"L929sAhFas cells [2]; Mus musculus, 48 h, read-out: Nuclear area (values represent EC50), compound treatment 48 h, Probit analysis",554 nM
same,IC50,"L929sAhFas cells [2]; Mus musculus, 48 h, read-out: Nuclear roundness IC50, compound treatment 48 h, Probit analysis",1640 nM
same,EC50,"L929sAhFas cells [2]; Mus musculus, read-out: Cytokinesis EC50 (nuclear area), Aurora inhibitor panel, dose-response 10-0.0022 µM, pre-treated 1 h, mTNF 20 ng/mL 5 h, nonlinear regression",591 nM
same,Inhibition of recombinant mRIPK3 kinase activity,recombinant mRIPK3,does not inhibit; also recorded: not able to inhibit
same,Protection against TNF-induced RIPK1-dependent necroptosis over time,"L929sAhFas cells [1]; 3 µM, pre-treated 1 h, mTNF 20 ng/mL",protects
same,IC50,"L929sAhFas cells [1]; Mus musculus, L929, read-out: IC50 L929 TNF-induced necroptosis as given in the Discussion, condition not specified",700 nM
same,IC50,"L929sAhFas cells [1]; read-out: Necroptosis L929-mTNF IC50, pre-treatment 1 h, mTNF 20 ng/mL 5 h, Probit analysis",550 nM and 554 nM
same,Inhibition of RIPK1-dependent apoptosis,MEF cells,inhibits RIPK1-dependent apoptosis
same,Protective effect against necroptosis at 10 µM,"L929sAhFas cells [4]; 10 µM, mTNF+zVAD.fmk 3 h",partially lost
same,Protection against necroptosis in L929sAhFas (in words),"L929sAhFas cells [4]; pre-treated 1 h, stimulation 3 h, sensitised condition (mTNF+zVAD.fmk) per text",protect against necroptosis
same,Inhibition of RIPK1-independent (Fas-mediated) apoptosis,L929sAhFas cells [6],no inhibition is observed
same,Concentration from which colony formation is impaired,L929sAhFas cells [7]; 24 h treatment,≥ 0.2 µM
same,IC50,"L929sAhFas cells [7]; Mus musculus, 24 h, read-out: Clonogenicity IC50",122 nM
same,Autophosphorylation of endogenous Aurora A and B,[8],inhibition of autophosphorylation
same,Protective effect against necroptosis at 10 µM,"HT29 cells; 10 µM, hTNF+Tak1i+zVAD.fmk 16 h",partially lost
same,Protection against necroptosis in HT29 (in words),"HT29 cells; pre-treated 1 h, hTNF+Tak1i+zVAD.fmk 17 h",protect against necroptosis

# Reference: PMC5833749 (Cell Death & Disease, 2018)
